# According to US6946458B2, “N-thiolated beta-lactams: novel antibacterial agents for methicillin-resistant Staphylococcus aureus” (University of South Florida, priority 1999, dated 2005):
# Where two headings read alike, the source gives them in different places.
# Columns and labels:
# MRSA USF653 = test: Kirby-Bauer agar disk diffusion; type: cell-based, Staphylococcus aureus; parameters: Kirby-Bauer Disc Diffusion Test Results: unit not given here; settings: for zone of inhibition at 20 µg/disc: Staphylococcus aureus, MRSA
# Procedure, shortened: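 Zones of inhibition, in mm and averaged over three runs, are measured after 24 h around 6-mm disks dosed with 20 μg compound on agar lawns of β-lactamase-producing MRSA.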
# S. simulans (ATCC 11631) = test: Kirby-Bauer agar disk diffusion; type: cell-based, Staphylococcus simulans; settings: 6-mm disks, 20 μg test compound
# Procedure, shortened: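 Agar disk diffusion used 6-mm air-dried disks carrying 20 μg of compound. Values are mean diameters (mm) of the growth-inhibition zone at 24 h, from triplicate experiments. S. epidermidis and S. simulans were clinical isolates.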
# N. gonorrhoeae = test: Kirby-Bauer agar disk diffusion; type: cell-based, Neisseria gonorrhoeae; settings: Neisseria gonorrhoeae; Table 1; 6-mm disks, 20 μg test compound, 24 h, triplicate; β-lactamase positive; read-out: zone of growth inhibition, average diameter
# Description: In this study, a selection of N-methylthio-substituted β-lactams are examined for antimicrobial activity by the Kirby-Bauer disk diffusion method on agar plates. A variety of common Gram-positive and Gram-negative bacteria are tested, including clinical isolates of methicillin-resistant Staphylococcus aureus (MRSA).
# Compound susceptibility measurements are obtained from agar disk diffusion experiments using 6-mm air-dried disks impregnated with 20 μg of the test compound. The values correspond to the average diameters in mm (triplicate experiments) for the zone of growth inhibition observed after 24 h. Staphylococcus aureus (ATCC 25923) and β-lactamase-producing strains of methicillin-resistant Staphylococcus aureus (labeled as MRSA USF652-659) are obtained from Lakeland Regional Medical Center, Lakeland, Fla. Staphylococcus epidermidis, Staphylococcus simulans, Staphylococcus simulans, and Microcossus luteus are clinical isolates from University of South Florida Medical Clinic. Nieserria gonnorhoeae (β-lactamase positive) is obtained from the Tampa Branch State Laboratory. PenG is penicillin G (potassium salt). Table 1 provides the zones of growth inhibition that are observed after 24 hours using the lactams of FIGS. 1A-1I (designated A-I, respectively).
# [1] = system: cultures of S. aureus and MRSA; test: electron microscopy of cell morphology; type: cell-based, Staphylococcus aureus; settings: Example 1; electron microscopy, high magnification
# Source text: The structure-bioactivity patterns observed for these N-thiolated lactams are highly atypical for a β-lactam antibiotic. The compounds are lipohilic and devoid of the typical acidic ring functionality required for recognition by the penicillin binding proteins. The implication that the lactams set forth in FIGS. 1A-1I are not acting in the same manner or on the same enzymes as the traditional β-lactam drugs is supported by electron microscopy experiments, which confirm that cell morphology is unaffected by the lactam of FIG. 1D (Greenwood, D. et al. Science, 1969, 163:1076).
# (§1) In fact, only small isolated colonies of surviving cells can be found, all of which appear perfectly normal in size, shape, smoothness, and clustering behavior. […] Pulse radiolabeling experiments indicate that the lactam of FIG. 1D blocks the bacterial uptake of ^3H-uridine and ^3H-leucine at low (MIC) levels (Lim, D. V. et al. Microbiology, 1977, 33:328; Champney, W. S. and C. G. Tober Antimicrob. Agents and Chemother., 2000, 44:1413).
# Light microscopy and scanning electron microscopy experiments have enabled us to look for cell wall damage in cultures of S. aureus and MRSA grown in the presence of N-methylthio lactam (FIG. 11F) over a range of different concentrations and cell growth conditions. […] Those cells that survive the treatment appear normal (coccal) and fully mature.
# MRSA cells = test: light microscopy after Gram staining; type: cell-based, Staphylococcus aureus
# Source text: as §1
# (FIGS. 14A-14C) S. aureus is a Gram-positive microorganism, and thus reacts with Gram stain to produce a purple coloration due to binding of the stain to the peptidoglycan. 100% of MRSA cells grown either in the absence or presence of the lactam of FIG. 11F take on a purple color when Gram stained (top and center images, next page). In contrast, for MRSA cells treated with penicillin G or vancomycin (cell wall synthesis inhibitors), only about 30% of the cells are Gram-stained purple, with the remainder of the cells appearing pink (bottom image, next page) due to morphologically altered walls. This is strong evidence that the N-methylthio lactams are not affecting late stage events in cell wall biosynthesis.
smiles,measurement,setting,value
"CC1(C)S[C@@H]2[C@H](NC(=O)Cc3ccccc3)C(=O)N2[C@H]1C(=O)O [PenG, penicillin G, reference compound]",zone of inhibition at 20 µg/disc,"MRSA USF653; Table 1, 6-mm disks, 20 μg test compound, 24 h, triplicate, read-out: zone of growth inhibition, average diameter",16 mm
same,zone of inhibition at 20 µg/disc,"MRSA USF653; Table 4, 20 μg disk loading, read-out: Zones of Inhibition",15 mm
same,zone of inhibition at 20 µg/disc,"MRSA USF653; Table 6, 20 μg disk loading, read-out: The Zone of Inhibition",15 mm
same,"zone of growth inhibition, average diameter","MRSA USF653; Table 3, 6-mm disks, 20 μg test compound, 24 hours",16 mm
same,Kirby-Bauer Disc Diffusion Test Results,"MRSA USF653; Table 5, beta-lactamase producing strain",15
same,zone of inhibition at 20 µg/disc,"S. simulans (ATCC 11631); Staphylococcus simulans, ATCC11631, Table 1, 24 h, triplicate, read-out: zone of growth inhibition, average diameter",13 mm
same,"zone of growth inhibition, average diameter","S. simulans (ATCC 11631); Table 3, 24 hours",13 mm
same,zone of inhibition at 20 µg/disc,N. gonorrhoeae,0 mm
same,cell morphology,[1],"wrinkled, deformed, or even sheared"
same,coloration upon Gram staining,MRSA cells; Example 1,pink coloration
same,cells Gram-stained purple,"MRSA cells; Example 5, MRSA cells grown in presence of the substance",about 30%
